Measurements taken from patent publication US8642656B2, “Calixarene-based peptide conformation mimetics, methods of use, and methods of making” (priority 2004, dated 2014).
Where two headings read alike, the source gives them in different places.

Experiments:
B16F10 tumor cells = assay: Proliferation of B16F10 tumor cells; assay type: cell-based, murine
[1] = tested on: chorioallantoic membrane (CAM) vasculature; assay: Chorioallantoic membrane (CAM) assay; assay type: in vivo, chicken; settings: 25 μM daily, day 10 to 13
Method: Fertilized Lohman-selected white leghorn eggs were incubated for 3 days at 37° C. and 55% relative humidity and rotated once every hour. On day 3 a rectangular window (1 cm×2 cm) was made in the eggshell. The window was covered with tape to prevent dehydration. The window allowed undisturbed observation of the developing vasculature of the CAM. On day 7 a silicon ring (10 mm diameter) was placed on the CAM to allow local drug administration within the ring. Compounds were applied daily in aliquots of 65 μl (25 μM) from day 10 to day 13. On day 14 the CAMs were photographed.

bFGF-stimulated HUVEC = assay: EC proliferation, [3H]-thymidine incorporation, bFGF-stimulated HUVEC (Example 48); assay type: cell-based, human; settings: for IC50: bFGF-stimulated HUVEC, highest dose tested 25 μM; for activity as anti-angiogenic agents, ranking in words: library of 23 compounds
Method: Proliferation is expressed as mean counts per minute (cpm) of quadruplicate cultures in three independent experiments (±SEM). […] Human umbilical vein derived EC (HUVEC) were harvested from normal human umbilical cords by perfusion with 0.125% trypsin/EDTA. Harvested HUVECs were cultured in gelatin coated tissue culture flasks and subcultured 1:3 once a week in culture medium (RPM1-1640 with 20% human serum (HS), supplemented with 2 mM glutamine and 100 U/mL penicillin and 0.1 mg/mL streptomycin). Statistical analysis was performed by using the Student's t-test.

B16F10 tumor = assay: TUNEL staining for total cell apoptosis, B16F10 tumors; assay type: in vivo, mice; settings: B16F10, 10 mg/kg; mean ± standard error, 20 images
Method: To assess the extent of total cell apoptosis, tumor tissue sections were stained by using the TUNEL (terminal deoxyribonucleotidyl transferase-mediated dUTP-nick-end labeling) assay, which was performed according to the manufacturer's instructions (In situ cell death detection kit, fluorescein; TUNEL, Roche). After 1-hour incubation at room temperature, slides were washed with PBS and immediately imaged using an Olympus BX-60 fluorescence microscope at 200× magnification.

MA148 tumor vessels = assay: Histological analysis of microvessel density, anti-CD31 staining, MA148 tumors; assay type: in vivo, mice; settings: mean ± standard error, 20 images
Method: Immunohistochemistry was used to assess microvessel density and the extent of total cell apoptosis. Approximately, tumors of the same size and with no apparent necrosis were selected for processing. On the last day of treatment mice were sacrificed and tumors were excised. Tumor tissue was embedded in tissue freezing medium (Miles Inc, Elkart, Ind.) and shock frozen in liquid nitrogen. Sections of tissue (10 μm thickness) were prepared for immunohistochemical analysis. For this, tissue sections were brought to room temperature, air dried overnight, and then fixed in acetone for 10 minutes. Slides were allowed to air dry for at least 30 minutes and were washed three limes for 5 minutes each in phosphate-buffered saline (PBS, pH 7.4). Samples were then blocked with PBS containing 0.1% bovine serum albumin and 3% human serum albumin for at least 30 minutes at room temperature in a humidified box. Samples were subsequently incubated with phycoerytrin (PE)-conjugated monoclonal antibody to CD31 (PECAM-1) in a 1:50 dilution (Pharmigen, San Diego, Calif.) to stain for microvessel density.
Digital images were stored and processed using Adobe Photoshop (Adobe Inc., Mountain View Calif.). Quantification of microvessel density, were determined as described previously (Dings et al., Cancer Res 63, 382-385 (2003)). Statistical analysis was performed using the Student's t-test.

[2] = Hematocrit levels, study with B16 tumors in immune competent mice; assay type: in vivo; settings: vehicle 51±1.4
Method: As an indirect measurement of general toxicity, body weights of mice were monitored twice weekly, using a digital balance (Ohaus Florham, N.J.). To determine hematocrit levels, blood samples were extracted by tail vein bleedings one day after terminating treatment, and blood was collected in heparinized micro-hematocrit capillary lubes (Fisher Pittsburgh, Pa.). Samples were spun down for 10 minutes in a micro-hematocrit centrifuge (Clay-Adams; NY), and the amount of hematocrit was determined using an international microcapillary reader (IEC; Needham, Mass.).

LPS from S. marcascens = assay: LPS neutralization assay (Limulus amoebocyte lysate, QCL-1000); assay type: biochemical, Serratia marcascens; settings: read-out: IC50 values (μM) for LPS binding, Serratia
How it was run: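 Compounds were tested for inhibition of LPS-triggered activation of the Limulus amoebocyte lysate proenzyme, which cleaves a chromogenic substrate to release p-nitroaniline read at 405-410 nm. Each LPS was used at 0.04 units. IC50 came from sigmoidal dose-response fits.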

[3] = tested on: MA148 human ovarian carcinoma; assay: Proliferation of MA148 tumor cells; assay type: cell-based; settings: read-out: IC50 against MA148 tumor cells
LPS from K. pneumoniae = assay: LPS neutralization assay (Limulus amoebocyte lysate, QCL-1000); assay type: biochemical, Klebsiella pneumoniae; settings: read-out: IC50 values (μM) for LPS binding, Klebsiella
How it was run: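 Absorbance at 405-410 nm tracks pNA released from a synthetic substrate by LPS-activated lysate enzyme. Compounds were titrated against 0.04 units of each LPS. IC50 values derive from sigmoidal curve fitting.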

Row | Molecule | angiogenesis inhibition in CAM assay (in words) [1] | IC50 (bFGF-stimulated HUVEC) [nM] | activity as anti-angiogenic agents, ranking in words (bFGF-stimulated HUVEC) | Apoptosis (B16F10 tumor) [pixel counts per image] | Branch Points (MA148 tumor vessels; MA148, 10 mg/kg) [pixel counts per image] | End Points (MA148 tumor vessels; MA148, 10 mg/kg) [pixel counts per image] | Vessel Density (MA148 tumor vessels; MA148, 10 mg/kg) [pixel counts per image] | Vessel Length (MA148 tumor vessels; MA148, 10 mg/kg) [pixel counts per image] | Hematocrit levels ±SD [2] | IC50 (LPS from S. marcascens; Table 3, errors estimated ±30%) [µM] | IC50 [3] [nM] | IC50 (LPS from K. pneumoniae; Table 3, errors estimated ±30%) [µM] | further results
1 | 5,11,17,23-Tetra-tert-butyl-25,27-bis(2-guanidinoethoxy)-26,28-dihydroxy calix[4]arene trifluoroacetic acid salt [Compound 27] | angiogenesis is inhibited | 8000 | most active as anti-angiogenic agents | 2357 ± 103 | 2.3 ± 0.6 | 14.7 ± 2.2 | 7402 ± 763 | 5.0 ± 0.7 | 49±1.4 percentage red blood cells | > 5 | 3000 | > 5 | IC50 (B16F10 tumor cells; read-out: IC50 against B16F10 tumor cells): 10000 nM; Branch Points (MA148 tumor vessels; MA148, 2.7 mg/kg): 1.1 ± 0.3 pixel counts per image; End Points (MA148 tumor vessels; MA148, 2.7 mg/kg): 32.7 ± 6.0 pixel counts per image; Vessel Density (MA148 tumor vessels; MA148, 2.7 mg/kg): 6046 ± 533 pixel counts per image; Vessel Length (MA148 tumor vessels; MA148, 2.7 mg/kg): 4.2 ± 0.6 pixel counts per image
2 | CN(C)CCNC(=O)COc1c2cccc1Cc1cccc(c1OCC(=O)NCCN(C)C)Cc1cccc(c1OCC(=O)NCCN(C)C)Cc1cccc(c1OCC(=O)NCCN(C)C)C2 [Compound 40] | angiogenesis is inhibited | 2000 | most active as anti-angiogenic agents | 2807 ± 140 | 1.0 ± 0.2 | 23.0 ± 2.9 | 5112 ± 439 | 3.3 ± 0.5 | 53±0 percentage red blood cells | > 5 | 1000 | 1.5 | IC50 against B16F10 tumor cells (B16F10 tumor cells): neither demonstrated activity; Branch Points (MA148 tumor vessels; MA148, 2.4 mg/kg): 1.6 ± 0.3 pixel counts per image; End Points (MA148 tumor vessels; MA148, 2.4 mg/kg): 15.7 ± 2.1 pixel counts per image; Vessel Density (MA148 tumor vessels; MA148, 2.4 mg/kg): 7148 ± 844 pixel counts per image; Vessel Length (MA148 tumor vessels; MA148, 2.4 mg/kg): 5.3 ± 0.7 pixel counts per image; IC50 (LPS from S. marcascens; Table 2): > 5 µM; IC50 (LPS from K. pneumoniae; Table 2): 1.5 µM
